The test has as its target T1, glucokinase (GK), residues 12-465 of the human enzyme (Homo sapiens, UniProt P35557).
T1 construct: I.D. No. 1 corresponds to residues 12-465 of glucokinase; made in house; host or cells: E. coli DH10b-Tlr
T1 sequence (P35557 with tags, fused parts or gaps isoform P35557-2): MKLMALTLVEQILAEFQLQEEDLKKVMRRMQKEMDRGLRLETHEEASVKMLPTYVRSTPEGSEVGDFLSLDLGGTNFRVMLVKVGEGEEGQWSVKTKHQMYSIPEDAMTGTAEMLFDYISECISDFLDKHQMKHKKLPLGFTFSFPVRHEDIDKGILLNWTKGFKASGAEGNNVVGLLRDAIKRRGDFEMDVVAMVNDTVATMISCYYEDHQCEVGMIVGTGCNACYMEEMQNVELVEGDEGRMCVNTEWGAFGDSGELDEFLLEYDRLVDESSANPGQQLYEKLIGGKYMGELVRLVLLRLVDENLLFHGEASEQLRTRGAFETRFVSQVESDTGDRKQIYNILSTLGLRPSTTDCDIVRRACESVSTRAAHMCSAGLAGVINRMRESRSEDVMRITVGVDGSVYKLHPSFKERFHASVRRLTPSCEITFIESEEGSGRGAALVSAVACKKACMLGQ
Put plainly: Enzymatic glucokinase activity assay (KinaseGlo luminescence, ATP consumption). The test is classed as biochemical. As to conditions: 5 μM ATP, 5 mM Glucose; for EC50: GK activation, Kact = concentration giving 50% of the maximal increase in GK activity, read-out: pKact; for Emax: calculated maximal gain in GK enzyme activity at a saturating concentration of the compound, read-out: % ACTmax. In a few lines: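 Activation measured as ATP consumption: residual ATP detected by KinaseGlo luminescence after 60 min at room temperature with 5 μM ATP and 5 mM glucose (Hepes pH 7.2, MgCl2, Brij35, DTT, 2% DMSO). Enzyme was recombinant FLAG-tagged protein from E. coli. Eleven-point twofold series were fitted nonlinearly for pKact and % ACTmax.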

With `O=C(Nc1nccs1)[C@H](CC1CCCCC1)N1CCN(S(=O)(=O)c2ccc(-c3nsc(Cl)n3)s2)CC1=O` [Example 165, (S)-2-(4-(5-(5-chloro-1,2,4-thiadiazol-3-yl)thiophen-2-ylsulfonyl)-2-oxopiperazin-1-yl)-3-cyclohexyl-N-(thiazol-2-yl)propanamide], the EC50 lay within 0.794 to 1.26 µM and the Emax was ≤ 74%.

As for `CCOC(=O)c1nc(-c2ccc(S(=O)(=O)N3CCN([C@@H](CC4CCCCC4)C(=O)Nc4nccs4)C(=O)C3)s2)no1` [Example 167, (S)-ethyl 3-(5-(4-(3-cyclohexyl-1-oxo-1-(thiazol-2-ylamino)propan-2-yl)-3-oxopiperazin-1-ylsulfonyl)thiophen-2-yl)-1,2,4-oxadiazole-5-carboxylate], the EC50 was 1.58 to 2.51 µM and the Emax was ≤ 74%.

For the compound `Cc1nccc(-c2cccc(S(=O)(=O)N3CCN([C@@H](CC4CCCCC4)C(=O)Nc4nccs4)C(=O)C3)c2)n1` [Example 169, (S)-3-cyclohexyl-2-(4-(3-(2-methylpyrimidin-4-yl)phenylsulfonyl)-2-oxopiperazin-1-yl)-N-(thiazol-2-yl)propanamide], the EC50 lay within 0.794 to 1.26 µM and the Emax is 97.1 to 107%.

As for `O=C(Nc1nccs1)[C@H](CC1CCCCC1)N1CCN(S(=O)(=O)c2cc(Cl)c(Cl)s2)CC1=O` [Example 170, (S)-3-cyclohexyl-2-(4-(4,5-dichlorothiophen-2-ylsulfonyl)-2-oxopiperazin-1-yl)-N-(thiazol-2-yl)propanamide], the EC50 was ≤ 0.631 µM and the Emax is ≤ 74%.

With `O=C(Nc1nccs1)[C@H](CC1CCCCC1)N1CCN(S(=O)(=O)c2cccc3nsnc23)CC1=O` [Example 171, (S)-2-(4-(benzo[c][1,2,5]thiadiazol-4-ylsulfonyl)-2-oxopiperazin-1-yl)-3-cyclohexyl-N-(thiazol-2-yl)propanamide], the EC50 was 0.794 to 1.26 µM and the Emax is 97.1 to 107%.

Turning to `O=C(Nc1nccs1)[C@H](CC1CCCCC1)N1CCN(S(=O)(=O)c2ccc(Cl)s2)CC1=O` [Example 172, (S)-2-(4-(5-chlorothiophen-2-ylsulfonyl)-2-oxopiperazin-1-yl)-3-cyclohexyl-N-(thiazol-2-yl)propanamide], the EC50 is ≤ 0.631 µM and the Emax was 97.1 to 107%.

With `Cc1noc(C)c1S(=O)(=O)N1CCN([C@@H](CC2CCCCC2)C(=O)Nc2nccs2)C(=O)C1` [Example 173, (S)-3-cyclohexyl-2-(4-(3,5-dimethylisoxazol-4-ylsulfonyl)-2-oxopiperazin-1-yl)-N-(thiazol-2-yl)propanamide], the EC50 was ≥ 3.16 µM and the Emax is 74.1 to 97%.

On to `O=C(Nc1nccs1)[C@H](CC1CCCCC1)N1CCN(S(=O)(=O)c2ccc(-c3ccno3)s2)CC1=O` [Example 174, (S)-3-cyclohexyl-2-(4-(5-(isoxazol-5-yl)thiophen-2-ylsulfonyl)-2-oxopiperazin-1-yl)-N-(thiazol-2-yl)propanamide], for which the EC50 lay within 1.58 to 2.51 µM and the Emax was ≤ 74%.

For the compound `Cn1nc(-c2ccc(S(=O)(=O)N3CCN([C@@H](CC4CCCCC4)C(=O)Nc4nccs4)C(=O)C3)s2)cc1C(F)(F)F` [Example 175, (S)-3-cyclohexyl-2-(4-(5-(1-methyl-5-(trifluoromethyl)-1H-pyrazol-3-yl)thiophen-2-ylsulfonyl)-2-oxopiperazin-1-yl)-N-(thiazol-2-yl)propanamide], the EC50 was ≥ 3.16 µM and the Emax was ≤ 74%.

For the compound `O=C(Nc1nccs1)[C@H](CC1CCCCC1)N1CCN(S(=O)(=O)c2cccc3nonc23)CC1=O` [Example 176, (S)-2-(4-(benzo[c][1,2,5]oxadiazol-4-ylsulfonyl)-2-oxopiperazin-1-yl)-3-cyclohexyl-N-(thiazol-2-yl)propanamide], the EC50 was ≤ 0.631 µM and the Emax is ≥ 119%.

Turning to `O=C(Nc1nccs1)[C@H](CC1CCCCC1)N1CCN(S(=O)(=O)c2ccc(F)c(Cl)c2)CC1=O` [Example 177, (S)-2-(4-(3-chloro-4-fluorophenylsulfonyl)-2-oxopiperazin-1-yl)-3-cyclohexyl-N-(thiazol-2-yl)propanamide], the EC50 was 1.58 to 2.51 µM and the Emax is 74.1 to 97%.

On to `O=C(c1cccc(S(=O)(=O)N2CCN([C@@H](CC3CCCCC3)C(=O)Nc3nccs3)C(=O)C2)c1)c1ccccn1` [Example 178, (S)-3-cyclohexyl-2-(2-oxo-4-(3-picolinoylphenylsulfonyl)piperazin-1-yl)-N-(thiazol-2-yl)propanamide], for which the EC50 lay in the range of 0.794 to 1.26 µM and the Emax was 74.1 to 97%.

Take `O=C(c1ccncc1)c1cccc(S(=O)(=O)N2CCN([C@@H](CC3CCCCC3)C(=O)Nc3nccs3)C(=O)C2)c1` [Example 179, (S)-3-cyclohexyl-2-(4-(3-isonicotinoylphenylsulfonyl)-2-oxopiperazin-1-yl)-N-(thiazol-2-yl)propanamide]: the EC50 was in the range of 0.794 to 1.26 µM and the Emax was 108 to 119%.

Consider `Cc1cc(S(=O)(=O)N2CCN([C@@H](CC3CCCCC3)C(=O)Nc3nccs3)C(=O)C2)c(C)s1` [Example 180, (S)-3-cyclohexyl-2-(4-(2,5-dimethylthiophen-3-ylsulfonyl)-2-oxopiperazin-1-yl)-N-(thiazol-2-yl)propanamide], for which the EC50 was ≤ 0.631 µM and the Emax was 108 to 119%.

For `Cc1cc(S(=O)(=O)N2CCN([C@@H](CC3CCCCC3)C(=O)Nc3nccs3)C(=O)C2)c(C)o1` [Example 181, (S)-3-cyclohexyl-2-(4-(2,5-dimethylfuran-3-ylsulfonyl)-2-oxopiperazin-1-yl)-N-(thiazol-2-yl)propanamide], the EC50 is ≤ 0.631 µM and the Emax was 108 to 119%.

Take `COc1cc(C)c(S(=O)(=O)N2CCN([C@@H](CC3CCCCC3)C(=O)Nc3nccs3)C(=O)C2)c(C)c1C` [Example 182, (S)-3-cyclohexyl-2-(4-(4-methoxy-2,3,6-trimethylphenylsulfonyl)-2-oxopiperazin-1-yl)-N-(thiazol-2-yl)propanamide]: the EC50 was in the range of 0.794 to 1.26 µM and the Emax was ≤ 74%.

For `O=C(Nc1nccs1)[C@H](CC1CCCCC1)N1CCN(S(=O)(=O)c2ccc(F)c(F)c2F)CC1=O` [Example 183, (S)-3-cyclohexyl-2-(2-oxo-4-(2,3,4-trifluorophenylsulfonyl)piperazin-1-yl)-N-(thiazol-2-yl)propanamide], the EC50 was in the range of 0.794 to 1.26 µM and the Emax was ≥ 119%.

For the compound `O=C(Nc1nccs1)[C@H](CC1CCCCC1)N1CCN(S(=O)(=O)c2cc(F)ccc2F)CC1=O` [Example 184, (S)-3-cyclohexyl-2-(4-(2,5-difluorophenylsulfonyl)-2-oxopiperazin-1-yl)-N-(thiazol-2-yl)propanamide], the EC50 was ≤ 0.631 µM and the Emax is 108 to 119%.

Consider `O=C(Nc1nccs1)[C@H](CC1CCCCC1)N1CCN(S(=O)(=O)c2cc(Cl)ccc2F)CC1=O` [Example 185, (S)-2-(4-(5-chloro-2-fluorophenylsulfonyl)-2-oxopiperazin-1-yl)-3-cyclohexyl-N-(thiazol-2-yl)propanamide], for which the EC50 is ≤ 0.631 µM and the Emax was ≥ 119%.

For the compound `Cc1cc(S(=O)(=O)N2CCN([C@@H](CC3CCCCC3)C(=O)Nc3nccs3)C(=O)C2)c(C)cc1Cl` [Example 186, (S)-2-(4-(4-chloro-2,5-dimethylphenylsulfonyl)-2-oxopiperazin-1-yl)-3-cyclohexyl-N-(thiazol-2-yl)propanamide], the EC50 is ≤ 0.631 µM and the Emax is ≤ 74%.

The record behind these values is patent US8173645B2 (Takeda San Diego, Inc., priority 2007, dated 2012).
